Source: publication PMC4992173, “Divergent synthesis and identification of the cellular targets of deoxyelephantopins” (Nature Communications, 2016)

Biological target: T1, Glyoxylate reductase/hydroxypyruvate reductase (GRHPR) (Homo sapiens, UniProt Q9UBQ7)
T1 construct: endogenous in cells; host or cells: MCF7
Assay: SILAC competitive profiling with probe 24c in MCF7 lysates: GRHPR
Type: binding
Settings: protein GRHPR, 1 h, then 10 µM 24c
Description: In our efforts to determine the direct molecular targets of deoxyelephantopin we first performed a gel-based competitive in situ proteomic profiling assay[41] […] While the greater conformational flexibility of probe 24c could potentially lead to more promiscuous target engagement relatively to deoxyelephantopin, it was favoured based on the fact that an alkyne moiety appended to the rigid scaffold of deoxyelephantopin may hinder some of its interactions. MCF7 cells were pretreated with various concentrations of deoxyelephantopin for 4 h, harvested, lysed and the lysates were treated with the fluorogenic probe 24c-Cy3 (10 μM; Supplementary Fig. 10). […] Furthermore, cells were pretreated with 20 μM concentration of deoxyelephantopin or 24c and the proteomic profiles were compared (Fig. 6b, Supplementary Fig. 11). Multiple bands were detected that were equally competed by both DEP and 24c, thus again confirming that 24c can be used as an acceptable clickable analogue of deoxyelephantopin in pulldown assays. Having established the optimal labelling conditions by SDS–PAGE, we next carried out a mass spectrometry-based competitive profiling assay[42] coupled with the method of stable isotope labelling of amino acids in culture (SILAC)[43]. […]
visualization were performed as described above. Images were quantified with ImageJ and kinetics values were calculated using GraphPad Prism (V6.03). […]

T1 sequence (Q9UBQ7 whole entry): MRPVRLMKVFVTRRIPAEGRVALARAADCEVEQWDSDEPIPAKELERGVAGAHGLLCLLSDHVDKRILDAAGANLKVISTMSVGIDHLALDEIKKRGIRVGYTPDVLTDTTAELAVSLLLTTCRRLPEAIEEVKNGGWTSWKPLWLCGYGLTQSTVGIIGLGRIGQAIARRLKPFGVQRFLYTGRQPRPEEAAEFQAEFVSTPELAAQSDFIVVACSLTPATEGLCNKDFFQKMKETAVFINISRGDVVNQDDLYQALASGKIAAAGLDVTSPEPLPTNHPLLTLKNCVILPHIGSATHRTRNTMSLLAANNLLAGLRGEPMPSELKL

## C=C(C)C(=O)O[C@H]1CC2=C[C@@H](C/C(C)=C/[C@H]3OC(=O)C(=C)[C@H]13)OC2=O [deoxyelephantopin]
  SILAC ratio 20 µM Deoxyelephantopin/DMSO with 24c: 0.23
